According to the NIST ThermoML archive (doi:10.1021/je6005778):

Details: Liquid; for speed of sound: Pulse-echo method

CCC(O)CO (stereo unspecified) [1,2-butanediol]
Details	mass density [kg/m3]	speed of sound [m/s]
288.15 K, 101.33 kPa	1005.78	–
292.87 K, 45600 kPa	–	1634.3
292.87 K, 60790 kPa	–	1681.5
292.87 K, 75990 kPa	–	1726
292.87 K, 91190 kPa	–	1768
292.87 K, 101320 kPa	–	1794.7
292.88 K, 15200 kPa	–	1528.2
292.88 K, 30400 kPa	–	1583.2
292.93 K, 101.33 kPa	–	1466.5
293.15 K, 101.33 kPa	1002.12	–
298.1 K, 101.33 kPa	–	1451.3
298.15 K, 101.33 kPa	998.408	–
298.15 K, 15200 kPa	–	1513.5
298.15 K, 30400 kPa	–	1569.2
298.15 K, 45600 kPa	–	1621.1
298.15 K, 60790 kPa	–	1668.8
298.15 K, 75990 kPa	–	1713.8
298.15 K, 91190 kPa	–	1755.9
298.15 K, 101320 kPa	–	1783
303.13 K, 15200 kPa	–	1500
303.13 K, 30400 kPa	–	1556.4
303.13 K, 45600 kPa	–	1608.8
303.13 K, 60790 kPa	–	1657.1
303.13 K, 75990 kPa	–	1702.2
303.13 K, 91190 kPa	–	1745
303.13 K, 101320 kPa	–	1772.3
303.15 K, 101.33 kPa	994.659	–
303.18 K, 101.33 kPa	–	1436.5
308.12 K, 60790 kPa	–	1645.5
308.12 K, 91190 kPa	–	1734.2
308.13 K, 15200 kPa	–	1486.6
308.13 K, 30400 kPa	–	1543.5
308.13 K, 45600 kPa	–	1596.5
308.13 K, 75990 kPa	–	1691
308.13 K, 101320 kPa	–	1761.7
308.15 K, 101.33 kPa	990.872	–
308.17 K, 101.33 kPa	–	1421.8
313.15 K, 101.33 kPa	987.048	–
313.3 K, 30400 kPa	–	1530.3
313.3 K, 45600 kPa	–	1583.7
313.3 K, 60790 kPa	–	1633.4
313.3 K, 75990 kPa	–	1679.3
313.3 K, 91190 kPa	–	1723
313.3 K, 101320 kPa	–	1750.4
313.31 K, 15200 kPa	–	1472.8
313.35 K, 101.33 kPa	–	1406.7
318.15 K, 101.33 kPa	983.185	1392.6
323.15 K, 101.33 kPa	979.285	–
328.15 K, 101.33 kPa	975.354	–
333.15 K, 101.33 kPa	971.386	–
338.16 K, 101.33 kPa	967.378	–
343.15 K, 101.33 kPa	963.333	–
348.16 K, 101.33 kPa	959.256	–
353.15 K, 101.33 kPa	955.143	–
358.15 K, 101.33 kPa	950.989	–
363.15 K, 101.33 kPa	946.804	–

CC(O)CCO (stereo unspecified) [1,3-butanediol]
Details	mass density [kg/m3]	speed of sound [m/s]
288.15 K, 101.33 kPa	1006.75	–
292.86 K, 45590 kPa	–	1686.5
292.86 K, 75990 kPa	–	1770.1
292.86 K, 91180 kPa	–	1808.7
292.86 K, 101320 kPa	–	1833.6
292.87 K, 15200 kPa	–	1592.1
292.87 K, 30390 kPa	–	1641
292.87 K, 60790 kPa	–	1729.5
292.92 K, 101.33 kPa	–	1537.7
293.15 K, 101.33 kPa	1003.52	–
298.15 K, 101.33 kPa	1000.23	–
298.15 K, 15200 kPa	–	1578.4
298.15 K, 30390 kPa	–	1628
298.15 K, 45590 kPa	–	1673.8
298.15 K, 60790 kPa	–	1717.4
298.15 K, 75990 kPa	–	1758.3
298.15 K, 91180 kPa	–	1797.3
298.15 K, 101320 kPa	–	1822.1
298.2 K, 101.33 kPa	–	1523.3
303.13 K, 15200 kPa	–	1565.3
303.13 K, 30390 kPa	–	1615.9
303.13 K, 45590 kPa	–	1662.2
303.13 K, 60790 kPa	–	1706
303.13 K, 75990 kPa	–	1747.3
303.13 K, 91180 kPa	–	1786.7
303.13 K, 101320 kPa	–	1811.6
303.15 K, 101.33 kPa	996.895	–
303.17 K, 101.33 kPa	–	1509.7
308.11 K, 101320 kPa	–	1801.7
308.12 K, 45590 kPa	–	1650.6
308.12 K, 75990 kPa	–	1736.7
308.13 K, 15200 kPa	–	1552.4
308.13 K, 30390 kPa	–	1603.5
308.13 K, 60790 kPa	–	1694.6
308.13 K, 91180 kPa	–	1776.3
308.15 K, 101.33 kPa	993.524	–
308.16 K, 101.33 kPa	–	1496
313.11 K, 15200 kPa	–	1539.6
313.11 K, 30390 kPa	–	1591.2
313.11 K, 45590 kPa	–	1639.1
313.11 K, 60790 kPa	–	1683.6
313.11 K, 75990 kPa	–	1725.9
313.11 K, 91180 kPa	–	1765.9
313.11 K, 101320 kPa	–	1791.5
313.14 K, 101.33 kPa	–	1482.3
313.15 K, 101.33 kPa	990.116	–
318.16 K, 101.33 kPa	986.665	–
318.29 K, 15200 kPa	–	1526.2
318.29 K, 30390 kPa	–	1578.4
318.29 K, 45590 kPa	–	1627
318.29 K, 60790 kPa	–	1672
318.29 K, 75990 kPa	–	1714.8
318.29 K, 91180 kPa	–	1755.2
318.29 K, 101320 kPa	–	1781.1
318.32 K, 101.33 kPa	–	1467.9
323.15 K, 101.33 kPa	983.181	–
328.16 K, 101.33 kPa	979.654	–
333.16 K, 101.33 kPa	976.087	–
338.15 K, 101.33 kPa	972.476	–
343.15 K, 101.33 kPa	968.825	–
348.16 K, 101.33 kPa	965.14	–
353.15 K, 101.33 kPa	961.411	–
358.15 K, 101.33 kPa	957.637	–
363.15 K, 101.33 kPa	953.825	–
